Experimental data: article PMC8119466, “A screen of FDA-approved drugs identifies inhibitors of protein tyrosine phosphatase 4A3 (PTP4A3 or PRL-3)” (Scientific Reports, 2021)
Structures can show the parent of a compound that is named as a salt.

Columns and labels:
Type in all cases: biochemical
Details in all cases: FDA-approved drug screen; compared to DMSO
recombinant PRL-1 = biological target: T1, recombinant PRL-1 (Homo sapiens, UniProt Q93096); assay: In vitro phosphatase assay (DiFMUP hydrolysis), PRL-1; further: test concentration or dose not given here
T1 construct: 6xHis (N, cleaved yes); made in house; host or cells: E. coli One Shot BL21 Star
T1 sequence (Q93096 1-173): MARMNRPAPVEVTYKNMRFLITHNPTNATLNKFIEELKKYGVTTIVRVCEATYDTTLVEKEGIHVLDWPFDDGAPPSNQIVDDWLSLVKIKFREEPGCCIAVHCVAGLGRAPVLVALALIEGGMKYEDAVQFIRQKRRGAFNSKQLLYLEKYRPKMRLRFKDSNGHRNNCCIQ

recombinant PRL-2 = biological target: T2, recombinant PRL-2 (Homo sapiens, UniProt Q12974); assay: In vitro phosphatase assay (DiFMUP hydrolysis), PRL-2;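 further: PRL-2 activity read as DiFMUP hydrolysis after 20 min at room temperature with drug, enzyme first pre-reduced at 4 °C for 20 min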
T2 construct: 6xHis (N, cleaved yes); made in house; host or cells: E. coli One Shot BL21 Star
T2 sequence (Q12974 1-167): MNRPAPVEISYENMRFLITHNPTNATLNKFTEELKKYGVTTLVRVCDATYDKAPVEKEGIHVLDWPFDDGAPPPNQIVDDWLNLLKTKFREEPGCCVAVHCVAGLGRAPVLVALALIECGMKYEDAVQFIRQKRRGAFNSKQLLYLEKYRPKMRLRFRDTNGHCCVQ

recombinant PRL-3 = biological target: T3, recombinant PRL-3 (Homo sapiens, UniProt O75365); assay: In vitro phosphatase assay (DiFMUP hydrolysis), PRL-3; further: test concentration or dose not given here
T3 construct: 6xHis (N, cleaved yes); made in house; host or cells: E. coli One Shot BL21 Star
T3 sequence (O75365 whole entry): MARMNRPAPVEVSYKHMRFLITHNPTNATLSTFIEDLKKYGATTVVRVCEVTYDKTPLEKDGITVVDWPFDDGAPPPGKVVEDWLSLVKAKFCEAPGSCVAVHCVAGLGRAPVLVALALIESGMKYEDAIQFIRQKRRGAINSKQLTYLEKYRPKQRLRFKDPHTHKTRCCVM

SMILES	% Phosphatase Activity (compared to DMSO) PRL-1 (recombinant PRL-1) [%]	% Phosphatase Activity (compared to DMSO) PRL-2 (recombinant PRL-2) [%]	% Phosphatase Activity (compared to DMSO) PRL-3 (recombinant PRL-3) [%]
CC[C@H](C)[C@H]1O[C@]2(CC[C@@H]1C)C[C@@H]1C[C@@H](C/C=C(\C)[C@@H](O[C@H]3C[C@H](OC)[C@@H](O[C@H]4C[C@H](OC)[C@@H](O)[C@H](C)O4)[C@H](C)O3)[C@@H](C)/C=C/C=C3\CO[C@@H]4[C@H](O)C(C)=C[C@@H](C(=O)O1)[C@]34O)O2 [Ivermectin]	91	102	69
O=C(/C=C\n1cnc(-c2cc(C(F)(F)F)cc(C(F)(F)F)c2)n1)NNc1cnccn1 [KPT-330]	87	69	97
CC(=O)N1CCN(c2ccc(OCC3COC(Cn4ccnc4)(c4ccc(Cl)cc4Cl)O3)cc2)CC1 (stereo not drawn) [Ketoconazole]	92	89	75
CC(C(=O)O)c1cccc(C(=O)c2ccccc2)c1 (stereo not drawn) [Ketoprofen]	105	95	87
O=C(c1ccccc1)c1ccc2n1CCC2C(=O)O (stereo not drawn) [Ketorolac]	98	97	78
CN1CCC(=C2c3ccccc3CC(=O)c3sccc32)CC1 [Ketotifen Fumarate]	93	97	89
Cl.N=C(N)NCCC[C@H](N)C(=O)O [L-Arginine HCl (L-Arg)]	82	91	104
NC(=O)CC[C@H](N)C(=O)O [L-Glutamine]	94	77	87
N[C@@H](Cc1cc(I)c(Oc2cc(I)c(O)c(I)c2)c(I)c1)C(=O)O [L-Thyroxine]	79	92	81
C[N+](C)(C)C[C@H](O)CC(=O)[O-] [L-carnitine]	102	103	83
Cc1c(C(=O)Nc2ccc(N3C[C@@H](C)O[C@@H](C)C3)nc2)cccc1-c1ccc(OC(F)(F)F)cc1 [LDE225 (NVP-LDE225,Erismodegib)]	97	111	83
Cc1cc(Nc2ncc(Cl)c(Nc3ccccc3S(=O)(=O)C(C)C)n2)c(OC(C)C)cc1C1CCNCC1 [LDK378]	99	92	114
CN(C)C(=O)c1cc2cnc(Nc3ccc(N4CCNCC4)cn3)nc2n1C1CCCC1 [LEE011]	103	84	98
Cc1cccc(-c2nn3c(c2-c2ccnc4ccc(C(N)=O)cc24)CCC3)n1 [LY2157299]	111	130	115
CC(C)(C)Cn1c(N)nc2ccc(-c3[nH]c(C(C)(C)C)nc3-c3ccc(F)cc3)nc21 [LY2228820]	159	137	131
Cc1cc(Nc2cc(CN3CCOCC3)c3nc(C)c(Cc4ccc(Cl)cc4F)n3n2)n[nH]1 [LY2784544]	146	167	95
CCN1CCN(Cc2ccc(Nc3ncc(F)c(-c4cc(F)c5nc(C)n(C(C)C)c5c4)n3)nc2)CC1 [LY2835219]	92	79	99
CC(CCc1ccccc1)NCC(O)c1ccc(O)c(C(N)=O)c1 (stereo not drawn) [Labetalol HCl]	156	154	110
CCOC(=O)C1=C(C)NC(C)=C(C(=O)OCC)C1c1ccccc1/C=C/C(=O)OC(C)(C)C [Lacidipine]	232	329	172
O=C(C[S+]([O-])Cc1ccco1)NC/C=C\COc1cc(CN2CCCCC2)ccn1 (stereo not drawn) [Lafutidine]	114	115	83
